Experimental findings from patent US20150094327A1, “COMPOSITIONS AND METHODS FOR […]” (priority 2012, published 2015) are described below.

Entries after “also recorded” stand apart in the source; their conditions may differ. Read-outs that look alike come from different tables or passages of the source.

One series has as its system vaccinia virus WR. As to the kind of experiment: microbe, parasite or virus in culture. Type of series: cell-based. Conditions: for IC50: Orthopoxvirus vaccinia.
For the next series, the target named is T1, fowlpox virus resolvase (Fowlpox virus, UniProt Q9J546).
T1 sequence (Q9J546 1-156): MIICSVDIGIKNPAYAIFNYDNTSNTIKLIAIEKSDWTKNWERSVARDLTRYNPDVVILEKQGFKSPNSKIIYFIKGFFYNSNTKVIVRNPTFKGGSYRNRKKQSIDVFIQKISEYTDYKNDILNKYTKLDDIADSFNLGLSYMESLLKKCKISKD
Briefly: Fluorescence polarization (FP) assay of bulged DNA substrate cleavage by fowlpox resolvase. Type of series: biochemical. The settings on record: for IC50: off-center bulge substrate 2 nM, 10 nM fowlpox resolvase, 37° C., 1 hr; for activity in the FP assay: compared with compound 1 or with the N-hydroxy parent. For orientation: In fluorescence polarisation assays a small probe gives low polarisation when free and higher when bound to something large.

Series [1] in a line: Cytotoxicity, CellTiter-Glo Luminescent Cell Viability Assay. Conditions: for Cytotoxicity, LD50: CellTiter-Glo; for cytotoxicity: compared with compound 1. In general terms: ATP-based viability assays read luminescence as a measure of living cells.
A further series concerns fowlpox resolvase. As to the kind of experiment: Holliday junction substrate cleavage by fowlpox resolvase, gel based assay. Type of series: biochemical, fowlpox virus. The settings on record: authentic Holliday junction substrates in vitro.
The target of another series is variola topoisomerase (Variola virus, UniProt P32989). Type of series: biochemical.
variola topoisomerase, sequence (P32989 whole entry, looked up): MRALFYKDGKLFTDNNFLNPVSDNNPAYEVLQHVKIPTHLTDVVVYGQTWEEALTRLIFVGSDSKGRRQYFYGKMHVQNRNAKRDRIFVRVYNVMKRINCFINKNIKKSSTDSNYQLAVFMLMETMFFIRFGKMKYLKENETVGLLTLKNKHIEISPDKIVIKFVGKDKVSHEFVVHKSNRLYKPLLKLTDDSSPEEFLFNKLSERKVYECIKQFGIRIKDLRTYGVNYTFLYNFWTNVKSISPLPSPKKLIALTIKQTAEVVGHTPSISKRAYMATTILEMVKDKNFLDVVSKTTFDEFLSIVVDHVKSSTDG
Setting [2] is: 48 h, read-out: Antiviral assay, IC50.

What is called IC50 is the point on the concentration scale where inhibition reaches its midpoint. Usually Log P stands for the decadic logarithm of the partition coefficient of the neutral form, usually between octanol and water. In the case of `O=c1c(-c2ccccc2)c(O)c2cc(/C=C/c3ccc(C(F)(F)F)cc3)cnc2n1OCc1ccccc1` [Compound 3], the IC50 is greater than 350 µM in the series with vaccinia virus WR (setting [2]) and greater than 250 µM on fowlpox virus resolvase. In addition, in the series “Log P (hydrophobicity)”, the “Log P” value turned out to be 6.85.

Regarding `CCOC(=O)c1c(O)c2cc(-c3cccc(OC)n3)cnc2n(OCc2ccccc2)c1=O` [Compound 8, Ethyl 1-(benzyloxy)-4-hydroxy-6-(6-methoxypyridin-2-yl)-2-oxo-1,2-dihydro-1,8-naphthyridine-3-carboxylate], the IC50 in the series with vaccinia virus WR (setting [2]) is greater than 350 µM. Moreover, the “Log P” value in the series “Log P (hydrophobicity)” is 3.54. Besides, on fowlpox virus resolvase, the “activity in the FP assay” value was “abolished activity” and the IC50 is greater than 250 µM.

For the compound `O=c1c(-c2ccccc2)c(O)c2cc(CCc3ccc(C(F)(F)F)cc3)cnc2n1O` [Compound 2, 1,4-Dihydroxy-3-phenyl-6-(4-(trifluoromethyl)phenethyl)-1,8-naphthyridin-2(1H)-one], in the series on vaccinia virus WR (setting [2]), the IC50 stood at 4 ± 1 µM. For the same compound, in series [1], the “Cytotoxicity, LD50” value amounted to 15 ± 12 µM and the “cytotoxicity” value is “no reduction in cytotoxicity”. The “Log P” value in “Log P (hydrophobicity)” is 4.94. Further, at fowlpox virus resolvase, the “activity in the FP assay” value is on record as “slightly less potent” and 3 ± 2 µM corresponded to half-maximal inhibition (IC50).

On to `CCOC(=O)c1c(O)c2cc(CCc3ccc(C(F)(F)F)cc3)cnc2n(O)c1=O` [Compound 5, Ethyl 1,4-dihydroxy-2-oxo-6-(4-(trifluoromethyl)phenethyl)-1,2-dihydro-1,8-naphthyridine-3-carboxylate], for which the values for the IC50 in the series with vaccinia virus WR (setting [2]) and at fowlpox virus resolvase were 12 ± 1 µM and 14 ± 7 µM, respectively. Moreover, the “Cytotoxicity, LD50” value in series [1] stood at 20 ± 12 µM. Moreover, in “Log P (hydrophobicity)”, the “Log P” value is given as 3.60.

On to `CCOC(=O)c1c(O)c2cc(/C=C/c3ccc(C(F)(F)F)cc3)cnc2n(OCc2ccccc2)c1=O` [Compound 6, (E)-Ethyl 1-(benzyloxy)-4-hydroxy-2-oxo-6-(4-(trifluoromethyl)styryl)-1,2-dihydro-1,8-naphthyridine-3-carboxylate], for which the IC50 in the series with vaccinia virus WR (setting [2]) is greater than 350 µM. The “Log P” value in “Log P (hydrophobicity)” came to 5.50. Also, on fowlpox virus resolvase, the “activity in the FP assay” value was “abolished activity” and the IC50 was greater than 250 µM.

Regarding `O=c1c(-c2ccccc2)c(O)c2cc(-c3cccc(-c4ccccc4)c3)cnc2n1O` [Compound 1, 6-(Biphenyl-3-yl)-1,4-dihydroxy-3-phenyl-1,8-naphthyridin-2(1/H)-one], the half-maximal inhibitory concentration (IC50) came out at 4 ± 1 µM in the series on vaccinia virus WR (setting [2]) and 4 µM in the series with vaccinia virus WR (read-out: antiviral assays IC50). Also, the “inhibition of Holliday junction cleavage” value in the series on fowlpox resolvase is reported as “effective inhibition”. The “Cytotoxicity, LD50” value in series [1] is 13 ± 4 µM.

For the compound `COc1ccc(CCc2cnc3c(c2)c(O)c(-c2ccccc2)c(=O)n3O)cc1` [Compound 4, 1,4-Dihydroxy-6-(4-methoxyphenethyl)-3-phenyl-1,8-naphthyridin-2(1H)-one], in the series on vaccinia virus WR (setting [2]), the IC50 turned out to be 11 ± 1 µM. Moreover, in series [1], the “Cytotoxicity, LD50” value came to 10 ± 1 µM and the “cytotoxicity” value is “no reduction in cytotoxicity”. In addition, the “activity in the FP assay” value on fowlpox virus resolvase was “slightly less potent”.

With `CCOC(=O)c1c(O)c2cc(-c3cccc(OC)n3)cnc2n(O)c1=O` [Compound 7, Ethyl 1,4-dihydroxy-6-(6-methoxypyridin-2yl)-2-oxo-1,2-dihydro-1,8-naphthyridine-3-carboxylate], the “inhibition of variola topoisomerase activity” value against variola topoisomerase was “no Inhibitory activity; also recorded: lack of inhibition”. Also, the “antiviral activity” value in the series with vaccinia virus WR is “slightly increased; also recorded: showed antiviral activity at concentrations below cytotoxic levels”. The 50% inhibitory concentration (IC50) in the series with vaccinia virus WR (setting [2]) was determined as 25 ± 16 µM. Besides, in the series with fowlpox resolvase, the “inhibition of Holliday junction cleavage” value was “inhibition of cleavage”. In addition, in series [1], the “Cytotoxicity, LD50” value amounted to 156 ± 28 µM and the “cytotoxicity” value is listed as “greatly increased”. Further, the lipophilicity (Log P) in the series “Log P (hydrophobicity)” is 1.43. On fowlpox virus resolvase, the “activity in the FP assay” value is listed as “slight increase over compound 1” and the IC50 came to 11 ± 2 µM.
